This note sets out measurements from ChEMBL document CHEMBL1909046, “DrugMatrix in vitro pharmacology data”.

The target in assay [1] is T1, Alpha-2C adrenergic receptor (Homo sapiens, UniProt P18825).
T1 sequence (P18825 whole entry): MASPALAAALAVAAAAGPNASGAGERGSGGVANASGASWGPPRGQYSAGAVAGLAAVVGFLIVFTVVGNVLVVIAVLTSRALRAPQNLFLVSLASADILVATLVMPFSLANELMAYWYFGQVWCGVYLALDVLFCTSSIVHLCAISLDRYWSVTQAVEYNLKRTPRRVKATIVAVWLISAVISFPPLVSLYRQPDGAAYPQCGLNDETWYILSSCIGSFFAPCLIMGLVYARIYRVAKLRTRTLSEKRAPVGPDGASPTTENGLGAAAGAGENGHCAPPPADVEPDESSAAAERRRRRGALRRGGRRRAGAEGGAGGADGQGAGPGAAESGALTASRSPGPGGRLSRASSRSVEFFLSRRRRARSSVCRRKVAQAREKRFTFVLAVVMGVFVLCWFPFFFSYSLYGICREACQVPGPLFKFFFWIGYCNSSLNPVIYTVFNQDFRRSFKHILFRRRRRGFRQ
Nature of the assay: DRUGMATRIX: Adrenergic Alpha-2C radioligand binding (ligand: [3H] MK-912). The assay is classed as cell membranes, Sf9, Membrane. The following applies: sf9.

Assay [2] concerns the target Melanocortin receptor 4 (Homo sapiens, UniProt P32245). It counts as cell membranes, Membrane. The following applies: hek293. Note: in other assays of this panel Not Active means under 50% inhibition at 10 µM.
For assay [3], the target named is Tyrosine-protein kinase Fyn (Homo sapiens, UniProt P06241). Description: biochemical. The assay is classed as cell-based, Insect cells.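 Note: enzymatic inhibition of Fyn kinase activity measured with Poly(Glu:Tyr) as the phosphorylation substrate; in other assays of this panel Not Active means under 50% inhibition at 10 µM.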
Assay [4] addresses T2, 3-hydroxy-3-methylglutaryl-coenzyme A reductase (Homo sapiens, UniProt P04035).
T2 sequence (P04035 whole entry): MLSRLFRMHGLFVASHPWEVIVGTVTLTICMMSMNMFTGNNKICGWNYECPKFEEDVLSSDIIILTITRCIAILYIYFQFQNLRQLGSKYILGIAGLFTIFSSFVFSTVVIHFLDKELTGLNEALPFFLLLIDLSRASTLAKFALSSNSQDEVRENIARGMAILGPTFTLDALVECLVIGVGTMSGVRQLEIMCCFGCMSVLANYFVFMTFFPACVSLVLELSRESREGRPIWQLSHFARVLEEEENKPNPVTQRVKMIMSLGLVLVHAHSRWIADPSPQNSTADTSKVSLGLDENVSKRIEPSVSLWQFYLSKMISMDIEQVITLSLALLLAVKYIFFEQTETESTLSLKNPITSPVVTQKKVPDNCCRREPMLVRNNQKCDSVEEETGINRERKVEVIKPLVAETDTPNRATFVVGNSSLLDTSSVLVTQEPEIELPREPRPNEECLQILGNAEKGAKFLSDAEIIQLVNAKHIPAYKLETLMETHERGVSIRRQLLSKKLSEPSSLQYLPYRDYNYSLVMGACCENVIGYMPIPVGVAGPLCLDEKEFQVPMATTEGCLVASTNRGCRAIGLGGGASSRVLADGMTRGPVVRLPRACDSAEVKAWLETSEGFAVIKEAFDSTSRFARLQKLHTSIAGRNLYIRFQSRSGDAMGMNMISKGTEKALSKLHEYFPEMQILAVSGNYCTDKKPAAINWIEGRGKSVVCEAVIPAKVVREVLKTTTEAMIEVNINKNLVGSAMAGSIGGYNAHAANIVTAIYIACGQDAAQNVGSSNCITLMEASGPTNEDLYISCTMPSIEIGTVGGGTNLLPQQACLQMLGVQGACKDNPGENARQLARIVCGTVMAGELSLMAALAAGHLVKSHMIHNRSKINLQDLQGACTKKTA
Also noted: species or system Escherichia coli.

Assay [5] concerns the target Epidermal growth factor receptor (Homo sapiens, UniProt P00533). Nature of the assay: DRUGMATRIX: Protein Tyrosine Kinase, EGF Receptor enzyme inhibition (substrate: Poly(Glu:Tyr)). It counts as cell-based, Insect cells. Particulars: Not Active = under 50% inhibition at 10 µM.
Assay [6] concerns the target Mitogen-activated protein kinase 14 (Homo sapiens, UniProt Q16539). Also noted: species or system Escherichia coli.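 Note: inhibition of p38alpha enzyme activity in a biochemical kinase assay, with myelin basic protein serving as substrate; in other assays of this panel Not Active means under 50% inhibition at 10 µM.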
In assay [7] the target is T3, Polyunsaturated fatty acid lipoxygenase ALOX15 (Oryctolagus cuniculus, UniProt P12530).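 Note: inhibition of 15-lipoxygenase enzyme activity measured with linoleic acid as the substrate; in other assays of this panel Not Active means under 50% inhibition at 10 µM.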
T3 sequence (P12530 whole entry): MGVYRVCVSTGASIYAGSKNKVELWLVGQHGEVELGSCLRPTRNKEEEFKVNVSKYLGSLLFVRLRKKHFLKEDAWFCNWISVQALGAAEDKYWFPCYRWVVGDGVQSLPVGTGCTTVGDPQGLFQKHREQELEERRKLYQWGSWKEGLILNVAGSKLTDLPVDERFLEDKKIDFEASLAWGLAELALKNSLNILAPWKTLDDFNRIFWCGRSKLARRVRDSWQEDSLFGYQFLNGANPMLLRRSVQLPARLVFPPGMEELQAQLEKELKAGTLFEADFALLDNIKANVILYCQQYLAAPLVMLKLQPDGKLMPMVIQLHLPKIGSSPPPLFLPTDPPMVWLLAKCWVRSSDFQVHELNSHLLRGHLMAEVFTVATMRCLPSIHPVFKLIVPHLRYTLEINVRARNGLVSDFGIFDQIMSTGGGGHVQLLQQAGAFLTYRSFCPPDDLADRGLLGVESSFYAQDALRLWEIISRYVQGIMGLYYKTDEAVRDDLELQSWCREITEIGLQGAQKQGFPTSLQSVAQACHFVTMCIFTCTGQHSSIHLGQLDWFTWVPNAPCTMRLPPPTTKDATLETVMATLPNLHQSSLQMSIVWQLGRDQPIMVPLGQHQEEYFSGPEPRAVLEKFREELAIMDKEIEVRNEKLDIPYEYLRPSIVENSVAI
Nature of the assay: biochemical. It counts as tissue-based, Reticulocytes. The following applies: reticulocytes.

Broadly, the IC50 is the concentration that inhibits the measured activity by half.

Structures are written as SMILES.

Chain of Melanocortin receptor 4 (P32245 whole entry): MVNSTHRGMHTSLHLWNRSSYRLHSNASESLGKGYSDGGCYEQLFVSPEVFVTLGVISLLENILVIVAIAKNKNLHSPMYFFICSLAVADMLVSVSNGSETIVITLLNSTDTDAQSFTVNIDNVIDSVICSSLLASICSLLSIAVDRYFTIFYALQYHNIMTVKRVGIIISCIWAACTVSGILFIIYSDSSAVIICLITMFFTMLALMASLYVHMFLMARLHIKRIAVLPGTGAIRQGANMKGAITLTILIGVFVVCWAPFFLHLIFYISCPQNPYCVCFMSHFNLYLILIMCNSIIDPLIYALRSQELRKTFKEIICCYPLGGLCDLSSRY
Chain of Epidermal growth factor receptor (P00533 whole entry): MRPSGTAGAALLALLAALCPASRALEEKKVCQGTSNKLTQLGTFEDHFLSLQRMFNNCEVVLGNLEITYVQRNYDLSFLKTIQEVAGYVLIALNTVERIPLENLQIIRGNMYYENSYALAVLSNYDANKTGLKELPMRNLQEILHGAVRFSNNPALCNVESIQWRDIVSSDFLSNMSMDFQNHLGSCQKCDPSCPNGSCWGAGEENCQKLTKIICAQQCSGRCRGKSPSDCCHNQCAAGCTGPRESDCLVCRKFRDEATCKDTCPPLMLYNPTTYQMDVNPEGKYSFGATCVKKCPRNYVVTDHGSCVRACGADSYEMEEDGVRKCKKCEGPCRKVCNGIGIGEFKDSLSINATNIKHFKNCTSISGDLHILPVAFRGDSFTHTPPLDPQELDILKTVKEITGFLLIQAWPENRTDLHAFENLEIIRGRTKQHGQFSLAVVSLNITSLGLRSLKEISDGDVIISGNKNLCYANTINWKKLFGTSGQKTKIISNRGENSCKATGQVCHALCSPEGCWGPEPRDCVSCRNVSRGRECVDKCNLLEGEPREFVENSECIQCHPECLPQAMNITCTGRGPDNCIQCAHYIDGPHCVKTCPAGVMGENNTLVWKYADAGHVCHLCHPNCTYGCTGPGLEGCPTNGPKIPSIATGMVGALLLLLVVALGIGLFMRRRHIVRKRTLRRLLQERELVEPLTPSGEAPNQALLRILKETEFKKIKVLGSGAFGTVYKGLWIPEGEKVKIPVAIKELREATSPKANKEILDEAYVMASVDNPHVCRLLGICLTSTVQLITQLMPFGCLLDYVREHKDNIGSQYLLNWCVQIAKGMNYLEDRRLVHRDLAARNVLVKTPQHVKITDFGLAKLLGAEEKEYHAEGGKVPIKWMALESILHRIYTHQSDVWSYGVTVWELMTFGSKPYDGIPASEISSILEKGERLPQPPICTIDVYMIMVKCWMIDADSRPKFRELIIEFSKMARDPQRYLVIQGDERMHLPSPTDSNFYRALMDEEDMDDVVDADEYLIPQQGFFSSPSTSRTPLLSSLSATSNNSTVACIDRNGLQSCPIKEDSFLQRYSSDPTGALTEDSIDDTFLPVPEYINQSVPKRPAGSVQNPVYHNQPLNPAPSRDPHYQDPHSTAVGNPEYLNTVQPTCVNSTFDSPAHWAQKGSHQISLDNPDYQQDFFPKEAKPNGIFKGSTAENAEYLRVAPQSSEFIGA
Chain of Mitogen-activated protein kinase 14 (Q16539 whole entry): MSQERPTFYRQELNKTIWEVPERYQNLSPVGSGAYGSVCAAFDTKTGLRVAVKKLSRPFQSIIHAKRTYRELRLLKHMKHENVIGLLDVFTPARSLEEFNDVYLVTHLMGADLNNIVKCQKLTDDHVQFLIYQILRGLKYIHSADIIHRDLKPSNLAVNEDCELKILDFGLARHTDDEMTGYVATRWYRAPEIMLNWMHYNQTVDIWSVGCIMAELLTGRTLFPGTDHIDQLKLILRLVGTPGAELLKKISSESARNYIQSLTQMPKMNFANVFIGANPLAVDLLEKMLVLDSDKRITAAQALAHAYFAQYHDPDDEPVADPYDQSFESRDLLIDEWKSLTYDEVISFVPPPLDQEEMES
Chain of Tyrosine-protein kinase Fyn (P06241 whole entry): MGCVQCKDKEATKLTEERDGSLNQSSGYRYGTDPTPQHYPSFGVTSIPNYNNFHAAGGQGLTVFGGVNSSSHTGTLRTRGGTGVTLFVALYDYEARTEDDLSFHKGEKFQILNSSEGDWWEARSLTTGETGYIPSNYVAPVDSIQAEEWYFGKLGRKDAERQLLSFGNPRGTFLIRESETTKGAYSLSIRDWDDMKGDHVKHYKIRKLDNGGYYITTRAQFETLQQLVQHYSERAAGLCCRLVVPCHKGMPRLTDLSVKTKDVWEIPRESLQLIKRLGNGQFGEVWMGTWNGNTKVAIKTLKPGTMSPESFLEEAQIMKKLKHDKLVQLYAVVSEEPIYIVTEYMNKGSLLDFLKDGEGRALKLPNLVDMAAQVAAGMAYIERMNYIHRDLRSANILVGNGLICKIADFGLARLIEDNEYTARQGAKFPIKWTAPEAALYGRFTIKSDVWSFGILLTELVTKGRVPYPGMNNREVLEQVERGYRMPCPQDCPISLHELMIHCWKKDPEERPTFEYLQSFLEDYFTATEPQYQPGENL

Consider `CCCCC(=O)N(Cc1ccc(-c2ccccc2-c2nnn[nH]2)cc1)[C@H](C(=O)O)C(C)C`, for which the IC50 entry in assay [1], in assay [2], in assay [3] (insect cells), in assay [4], in assay [5] (insect cells) and in assay [6] was “Not Active” throughout. Also, the concentration for half-maximal inhibition (IC50) entry in assay [7] is reported as “Not Active”.

As to `O=C(O)COc1ccc(C(=O)c2cccs2)c(Cl)c1Cl`, the IC50 entry in assay [1], in assay [2], in assay [3] (insect cells), in assay [4], in assay [5] (insect cells) and in assay [6] was “Not Active” each time. In addition, the 50% inhibitory concentration (IC50) result in assay [7] was “Not Active”.

As for `CN1[C@@H]2CC[C@H]1C[C@@H](OC(c1ccccc1)c1ccccc1)C2` [BENZTROPINE], the concentration for half-maximal inhibition (IC50) result in assay [2], in assay [3] (insect cells), in assay [4], in assay [5] (insect cells), in assay [6] and in assay [7] was “Not Active” throughout.

Regarding `C[C@@](Cc1ccc(O)c(O)c1)(NN)C(=O)O.O` [CARBIDOPA], the concentration for half-maximal inhibition (IC50) result in assay [1] is “Not Active”; in assay [2] it was “Not Active”; in assay [3] (read-out: IC50), 3.73 µM; in assay [4] it was “Not Active”; in assay [5] (insect cells), “Not Active”; in assay [6], “Not Active”. In addition, in assay [7], the IC50 result is “Not Active”.

Turning to `CN1CCN(C2=Nc3cc(Cl)ccc3Nc3ccccc32)CC1` [CLOZAPINE], the IC50 result in assay [2], in assay [3] (insect cells), in assay [4], in assay [5] (insect cells), in assay [6] and in assay [7] was “Not Active” throughout.

In the case of `CC(C)NC[C@@H](O)COc1cccc2ccccc12` [DEXPROPRANOLOL], the IC50 result in assay [1], in assay [2], in assay [3] (insect cells), in assay [4], in assay [5] (insect cells) and in assay [6] was “Not Active” throughout. For the same molecule, the IC50 result in assay [7] is given as “Not Active”.

As to `CC(C)NC[C@H](O)COc1cccc2ccccc12` [LEVOPROPRANOLOL], the IC50 result in assay [1], in assay [2], in assay [3] (insect cells), in assay [4], in assay [5] (insect cells) and in assay [6] was “Not Active” throughout. The IC50 entry in assay [7] is “Not Active”.

Turning to `O=C(O)CCCCC1CCSS1` (stereo not drawn) [LIPOIC ACID, ALPHA], the concentration for half-maximal inhibition (IC50) result in assay [1], in assay [2], in assay [3] (insect cells), in assay [4], in assay [5] (insect cells) and in assay [6] was “Not Active” throughout. The half-maximal inhibitory concentration (IC50) entry in assay [7] is given as “Not Active”.

`CN(C)C(=O)C(CCN1CCC(O)(c2ccc(Cl)cc2)CC1)(c1ccccc1)c1ccccc1` [LOPERAMIDE]: the IC50 entry in assay [1], in assay [2], in assay [3] (insect cells), in assay [4], in assay [5] (insect cells) and in assay [6] was “Not Active” in each case. In addition, the IC50 result in assay [7] was “Not Active”.

In the case of `Clc1ccc(COC(Cn2ccnc2)c2ccc(Cl)cc2Cl)c(Cl)c1` (centres undefined) [MICONAZOLE], the half-maximal inhibitory concentration (IC50) result was “Not Active” in assay [1]; 4.16 µM in assay [3] (read-out: IC50); “Not Active” in assay [4]; 29.3 µM in assay [5] (read-out: IC50); “Not Active” in assay [6]; “Not Active” in assay [7].

Turning to `Oc1ccc2c3c1O[C@H]1[C@@H](O)CC[C@@]4(O)[C@@H](C2)N(CC2CCC2)CC[C@]314` [NALBUPHINE], the half-inhibitory concentration (IC50) result in assay [1], in assay [2], in assay [3] (insect cells), in assay [4], in assay [5] (insect cells) and in assay [6] was “Not Active” each time. For the same molecule, the IC50 result in assay [7] is listed as “Not Active”.

`C[C@]12C=CC(=O)C=C1CC[C@@H]1[C@@H]2C(=O)C[C@@]2(C)[C@H]1CC[C@]2(O)C(=O)CO` [PREDNISONE]: the half-maximal inhibitory concentration (IC50) result in assay [1], in assay [2], in assay [3] (insect cells), in assay [4], in assay [5] (insect cells) and in assay [6] was “Not Active” each time. The IC50 result in assay [7] was “Not Active”.

On to `OCCOCCN1CCN(C2=Nc3ccccc3Sc3ccccc32)CC1` [QUETIAPINE], for which the IC50 result in assay [2], in assay [3] (insect cells), in assay [4], in assay [5] (insect cells), in assay [6] and in assay [7] was “Not Active” each time.

In the case of `COC(=O)[C@H]1[C@H]2C[C@@H]3c4[nH]c5cc(OC)ccc5c4CCN3C[C@H]2C[C@@H](OC(=O)c2cc(OC)c(OC)c(OC)c2)[C@@H]1OC` [RESERPINE], the IC50 result in assay [1], in assay [2], in assay [3] (insect cells), in assay [4], in assay [5] (insect cells) and in assay [6] was “Not Active” in each case. Also, the IC50 result in assay [7] is “Not Active”.

Consider `O=C(O)c1ccccc1O` [SALICYLIC ACID], for which the IC50 result in assay [1], in assay [2], in assay [3] (insect cells), in assay [4], in assay [5] (insect cells) and in assay [6] was “Not Active” in each case. For the same molecule, the IC50 result in assay [7] was “Not Active”.

As for `C[S+]([O-])c1ccc(-c2nc(-c3ccncc3)c(-c3ccc(F)cc3)[nH]2)cc1` (centres undefined) [SB-203580], the half-inhibitory concentration (IC50) entry in assay [1], in assay [2], in assay [4] and in assay [7] was “Not Active” in each case.

`CC1CCC(NC(=O)N(CCCl)N=O)CC1` (centres undefined) [SEMUSTINE]: the IC50 entry in assay [1], in assay [2], in assay [3] (insect cells), in assay [4], in assay [5] (insect cells) and in assay [6] was “Not Active” in each case. Moreover, the IC50 result in assay [7] was “Not Active”.

Consider `O=C1C[C@@H]2OCC=C3CN4CC[C@]56c7ccccc7N1[C@H]5[C@H]2[C@H]3C[C@H]46` [STRYCHNINE], for which the IC50 result in assay [1], in assay [2], in assay [3] (insect cells), in assay [4], in assay [5] (insect cells) and in assay [6] was “Not Active” throughout. In addition, the concentration for half-maximal inhibition (IC50) entry in assay [7] is “Not Active”.
